Measurements from patent US6894062B1, “Quinoline derivatives” (Pfizer Inc., priority 2002, dated 2005).
Read-outs that look alike come from different tables or passages of the source.

Molecular target: T1, Rat 5HT7 Receptors (Rattus norvegicus, UniProt P32305)
T1 construct: expressed in transfected cells; host or cells: HEK-293
Test: 3H-5-Carboxamidotryptamine (3H-5-CT) binding to rat 5HT7 receptors expressed in HEK-293 cells
Description: The affinities of the active compounds for 5HT7 receptors can be determined using standard radioligand binding assays as described in the literature. The 5HT7 affinity can be measured using the following procedure.
^3H-5-Carboxamidotryptamine (^3H-5-CT) Binding to Rat 5HT7 Receptors Expressed in HEK-293 Cells: […]
Nonspecific binding is determined using 1 uM 5-HT creatinine sulfate. […] Radioactivity is quantified by liquid scintillation counting using a BetaPlate counter (LKB).
The percent inhibition of specific binding is calculated for each concentration of test compound. […] Ki values are calculated according to Cheng & Prusoff: Ki=IC50/(1+(L/Kd)), where L is the concentration of the radioligand used in the experiment and the Kd value is the dissociation constant for the radioligand determined in separate saturation experiments. […]

T1 sequence (P32305 whole entry): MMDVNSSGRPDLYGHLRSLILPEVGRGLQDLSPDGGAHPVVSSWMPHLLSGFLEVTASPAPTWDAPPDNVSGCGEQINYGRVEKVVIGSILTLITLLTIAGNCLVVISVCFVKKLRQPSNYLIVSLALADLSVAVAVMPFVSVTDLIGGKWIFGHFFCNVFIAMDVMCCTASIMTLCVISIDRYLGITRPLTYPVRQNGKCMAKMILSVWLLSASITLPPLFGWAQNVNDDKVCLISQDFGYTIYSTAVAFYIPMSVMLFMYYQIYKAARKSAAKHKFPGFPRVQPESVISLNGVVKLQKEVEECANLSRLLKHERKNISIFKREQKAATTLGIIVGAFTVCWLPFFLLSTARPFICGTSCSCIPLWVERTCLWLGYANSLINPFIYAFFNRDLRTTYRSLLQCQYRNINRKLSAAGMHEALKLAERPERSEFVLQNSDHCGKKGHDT

| SMILES | Ki [nM] | Ki (3H-5-CT 0.4 nM radioligand, HEK-293 cell membranes expressing rat 5HT7, Cheng & Prusoff, read-out: Ki) [nM] |
| --- | --- | --- |
| Cc1cnc2c(C3CCCNC3)cccc2c1 (racemic) [Example 8, 3-Methyl-8-Piperidin-3-yl-Quinoline] | ~7.6 |  |
| CCc1cnc2cc(C3CCCNC3)ccc2c1 (racemic) [Example 10, 3-Ethyl-7-Piperidin-3-yl-Quinoline] |  | ~500 |
